From patent US20230322797A1, “SOLID FORMS, PHARMACEUTICAL COMPOSITIONS AND PREPARATION OF HETEROAROMATIC MACROCYCLIC ETHER COMPOUNDS” (Nuvalent, Inc., priority 2022, published 2023)
Structures can show the parent of a compound that is named as a salt.

Experiments:
ROS1-positive NSCLC = ROS1-positive NSCLC patients; cited from earlier work
[1] = Salt screen of Compound 2: XRPD after drying and humidification; conditions: vacuum 50° C. at least 3 h, >95% RH overnight
[2] = Solid-form stability study of salts of Compound 2 (75% RH, 40° C., 7 days); type: physicochemical; conditions: for Purity (%) After / Purity (%) Before: HPLC; for Purity (%) After / XRPD Pattern After: after 7 days at 75% RH and 40° C.; for Purity (%) Before: before stress test
Procedure: Solid-form stability studies were completed by weighing approximately 30 mg each of Form A of the camsylate, esylate, mesylate, and sulfate salts of Compound 2 into 4 mL vials and covering with a Kimwipe. The vials were placed inside a humidity chamber set to 75% RH at 40° C. for 7 days. The HPLC and XRPD data was collected to confirm the purity and identity of the solid forms. The four salts were physically and chemically stable. No decrease in purity (i.e. less than 0.1%) or form change was observed after a seven-day stress test at 75% relative humidity (RH) and 40° C. (Table 5).

[3] = Solubility of salts of Compound 2 and free base in distilled water (gravimetric); type: physicochemical; conditions: for Solubility (mg solid/mL water): distilled water, RT, stirred 3 days, gravimetric; for XRPD Pattern Recovered: solid recovered after slurry in water at RT
Procedure: Solubility of the scaled-up salts of Compound 2 and free base Compound 2 was assessed in distilled water at RT. Approximately 30 mg of solid was weighed directly into 2 mL vials, and a 6 mm stir bar was added to each vial. Water was then incrementally added to the vials (starting with 1 vol.) and the resulting slurries were left to stir for 10-15 min prior to the next addition. As all solids remained in slurries upon the addition of 1 mL of water, the gravimetric method was adopted, and the vials were stirred at RT for 3 days before centrifuging. Supernatant solutions were recovered and evaporated to dryness at 50° C. in atmosphere on a hot plate, then placed at 50° C. under vacuum (˜−29 inHg) for 3 h before final weighing.

[4] = Solvent solubility screen; type: physicochemical; conditions: organic solvent or mixture, thermodynamic from solid; majority of the solvents investigated
From the text: Solids were recovered from these solutions by the addition of anti-solvent to give an indication of solid form, with Form 2 predominantly observed.

[5] = Dynamic vapour sorption (DVS); type: physicochemical; conditions: relative humidity from about 0 to about 90%, about 25° C.
Procedure: In one embodiment, the solid form is characterized by a DVS isotherm that matches the DVS isotherm depicted in FIG. 6. In one embodiment, the DVS isotherm is as measured at about 25° C.
Approximately, 10-20 mg of sample was placed into a mesh vapour sorption balance pan and loaded into a DVS Advantage dynamic vapour sorption balance by Surface Measurement Systems. The sample was subjected to a ramping profile from 40-90% relative humidity (RH) at 10% increments, maintaining the sample at each step until a stable weight had been achieved (dm/dt 0.004%, minimum step length 30 minutes, maximum step length 500 minutes) at 25° C. After completion of the sorption cycle, the sample was dried using the same procedure to 0% RH and then a second sorption cycle back to 40% RH. Two cycles were performed. The weight change during the sorption/desorption cycles were plotted, allowing for the hygroscopic nature of the sample to be determined. XRPD analysis was then carried out on any solid retained.

[6] = Stability study of Compound 1 drug substance; type: physicochemical
Procedure: A stability study is conducted for Compound 1. Samples were stored at: 30° C.±2° C./65%±5% Relative Humidity (RH), or 40° C.±2° C./75%±5% RH. At regular intervals (e.g., initial, 1, 3, 6, 9, 12, 18, 24, and 36 months), tests are performed for description, assay, related substances, water content, polymorphic form, and chiral purity.
A stability study was conducted for Compound 1 crystalline free base Form 2. Samples were stored at: (1) 30° C.±2° C./65%±5% Relative Humidity (RH), with data collected at 0, 1, 3, 6, 9, and 12 months; and (2) 40° C.±2° C./75%±5% RH, with data collected at 0, 1, 3, and 6 months. At the indicated time points, tests were performed for description, assay, related substances, water content, polymorphic form, and chiral purity.

Row | SMILES | Stability of crystalline salt pattern to drying and humidification [1] | Purity (%) After [2] [%] | Purity (%) Before [2] [%] | XRPD Pattern After [2] | Solubility (mg solid/mL water) [3] [mg solid/mL water] | XRPD Pattern Recovered [3] | other results
1 | C[C@@H](Oc1cc(-c2cnn(C3CCNCC3)c2)cnc1N)c1c(Cl)ccc(F)c1Cl [Crizotinib] | – | – | – | – | – | – | Median progression-free survival (ROS1-positive NSCLC): 9-19 months
2 | CCn1cc(Cc2cn(C)nc2-c2ccc(F)cc2[C@@H](C)Oc2cc(Br)cnc2N)c(Cl)n1 [Mesylate Salt] | stable to drying and humidification | 99.94 | 99.92 | Form A | 8 | Form A | –
3 | CCn1nc(Cl)c2c1-c1cnc(N)c(c1)O[C@H](C)c1cc(F)ccc1-c1nn(C)cc1C2 [lyophilized material] | – | – | – | – | – | – | solubility [4]: > 150 mg/mL
4 | CCn1cc(Cc2cn(C)nc2-c2ccc(F)cc2[C@@H](C)Oc2cc(Br)cnc2N)c(Cl)n1 [Sulfate Salt] | stable to drying and humidification | 99.97 | 99.97 | Form A | <3 | Form A | –
5 | CCn1nc(Cl)c2c1-c1cnc(N)c(c1)O[C@H](C)c1cc(F)ccc1-c1nn(C)cc1C2 [Form 2] | – | – | – | – | – | – | DVS weight increase [5]: about 0.3%; Chemical and physical stability (description, assay, related substances, polymorphic form, chiral purity) ([6]; 30° C.±2° C./65%±5% RH, 12 months (Example 21)): no meaningful change; Chemical and physical stability (description, assay, related substances, polymorphic form, chiral purity) ([6]; 40° C.±2° C./75%±5% RH, 6 months (Example 21)): no meaningful change
